Measured values published in patent US20250206760A1, “NITROGEN-CONTAINING HETEROCYCLIC COMPOUND, PREPARATION METHOD THEREFOR, AND PHARMACEUTICAL APPLICATION THEREOF” (Jiangsu Hengrui Pharmaceuticals Co., Ltd., priority 2022, published 2025).

Experiments:
[1] = system: EGFR wild-type Ba/F3 cells; assay: Ba/F3 cell proliferation assay, EGFR wild-type; assay type: cell-based; details: 72 h, Celltiter-Glo cell viability; for GI50: Mus musculus, BaF3, read-out: EGFR WT/BaF3 GI50
Method: (§1) EGFR wild-type Ba/F3 cells (Cobioer, Cat. No. CBP73110) in the logarithmic growth phase were seeded into a 96-well plate at 2.5×10^3 cells/[…] in a growth medium, and HER2 wild-type Ba/F3 cells (Cobioer, Cat. No. CBP73110) or HER2 A775_G776insYVMA mutant Ba/F3 (Cobioer, Cat. No. CBP73184) in the logarithmic growth phase were seeded into a 96-well plate at 5×10^3 cells/100 μL in a growth medium.
(§2) The plates were placed in a cell incubator at 37° C. overnight. The compound diluted in 3-fold gradient with a medium was added to the plates at 100 μL/well the next day. All treatments were performed in triplicate. The plates were cultured in the cell incubator at 37° C. for another 72 h. Celltiter-Glo Luminescent cell viability assay was performed.
(§3) The cell proliferation rate corresponding to each well was calculated according to the following formula: proliferation %=(test compound well G3-GO average value)/(DMSO control well G3 average value -GO average value)×100. According to the corresponding proliferation rate and concentration of each gradient concentration well, a gradient curve of cell proliferation was fitted using Prism Graphpad software, and GI50 (GI50 is defined as the concentration of a compound corresponding to the cell proliferation inhibition rate of 50%) of the compound was calculated.

[2] = system: HER2 wild-type Ba/F3 cells; assay: Ba/F3 cell proliferation assay, HER2 wild-type; assay type: cell-based; details: Mus musculus, BaF3, 72 h, Celltiter-Glo cell viability; for GI50: read-out: HER2 WT/BaF3 GI50; for Emax: read-out: HER2 WT/BaF3 Imax %
Method: as §1, §2, §3

[3] = system: HER2 A775_G776insYVMA mutant Ba/F3; assay: Ba/F3 cell proliferation assay, HER2 A775_G776insYVMA mutant; assay type: cell-based; details: Mus musculus, BaF3, 72 h, Celltiter-Glo cell viability; for GI50: read-out: HER2 A775_G776 ins YVMA/BaF3 GI50; for Emax: read-out: HER2 A775_G776 ins YVMA/BaF3 Imax %
Method: as §1, §2, §3

[4] = in vivo; set-up: species or system SD rats; details: both sexes, SD, rat, po, 50 mg/kg
Method: SD rats were used as test animals. After intragastric (i.g.) administration of example compounds to SD rats, the plasma concentrations at different time points were measured by the LC/MS/MS method. The pharmacokinetic behavior of the compound of the present disclosure in SD rats was studied, and its pharmacokinetic profiles were evaluated.
Four SD rats, of which half were male and half female, were provided by Vital River Laboratory Animal Technology Co., Ltd. The animals were fasted overnight and then intragastrically dosed.
A certain amount of example compound was weighed out and dissolved in 5% DMSO+20% PEG400+70% (10% TPGS)+5% (1% HPMC K100LV) to prepare a 5 mg/mL colorless clear solution.
The dose administered was 50 mg/kg, and the volume was 10.0 mL/kg.
(§4) 0.2-mL blood samples were collected from the orbit before administration and 0.25 h, 0.5 h, 1.0 h, 2.0 h, 4.0 h, 6.0 h, 8.0 h, 11.0 h, and 24.0 h after administration. The blood samples were placed into EDTA-K2 anticoagulation test tubes and centrifuged at 10,000 rpm for 1 min (4° C.), and plasma was separated within 1 h and stored in dry ice before analysis. The procedure starting from the blood collection to the centrifugation was performed under ice-bath conditions. Access to food was given 2 hours after administration.
After administration of different concentrations of the test compounds, the plasma concentration of the test compound in SD rats was determined: plasma samples (50 μL) were collected from the SD rats at various time points after administration, and 25 μL of camptothecin (1 μg/mL) and 450 μL of acetonitrile were added to each of the samples. The mixtures were vortexed and centrifuged at 3700 rpm for 10 min. 0.1 μL of the supernatant was taken for LC/MS/MS analysis.

[5] = in vivo; set-up: species or system C57 mice; details: female, C57, mouse, po, 50 mg/kg
Method: C57 mice were used as test animals. After intragastric (i.g.) administration of example compounds to C57 mice, the plasma concentrations at different time points were measured by the LC/MS/MS method. The pharmacokinetic behavior of the compounds of the present disclosure in C57 mice was studied and their pharmacokinetic profiles were evaluated.
Twenty-seven C57 mice, female, were evenly divided into 3 groups, provided by Beijing HFK Bioscience Co., Ltd., and intragastrically administered.
A certain amount of example compound was weighed out and dissolved in 5% DMSO+20% PEG400+70% (10% TPGS)+5% (1% HPMC K100LV) to prepare a 2.5 mg/mL colorless clear solution.
The dose administered was 50 mg/kg, and the volume was 20.0 mL/kg.
as §4, with “0.1-mL blood” for “0.2-mL blood”, “for 2” for “for 1”, “stored at −20° C.” for “stored in dry ice”
After administration of different concentrations of the test compounds, the plasma concentrations of the test compounds in C57 mice were determined: plasma samples (50 μL) were collected from the C57 mice at various time points after administration, and 25 μL of labetalol (1 μg/mL) and 450 μL of acetonitrile were added to each of the samples.
The mixtures were vortexed and centrifuged at 3700 rpm for 10 min. 0.1 μL of the supernatant was taken for LC/MS/MS analysis.

SMILES | EGFR WT/BaF3 Imax % [1] | GI50 [1] | GI50 [2] | Emax [2] | GI50 [3] | Emax [3] | AUC(0-t) [4] | CL/F [4] | Cmax [4] | Vd/F [4] | half-life [4] | AUC(0-t) [5] | CL/F [5] | Cmax [5] | Vd/F [5] | half-life [5]
C=CC(=O)N1[C@@H]2CC[C@H]1C[C@@H](Oc1ccc3ncnc(Nc4ccc(Oc5ccn6ncnc6c5)c(C)c4F)c3c1)C2 [Example 10, 1-(endo-3-((4-((4-([1,2,4]Triazolo[1,5-a]pyridin-7-yloxy)-2-fluoro-3-methylphenyl)amino)quinazolin-6-yl)oxy)-8-azabicyclo[3.2.1]octan-8-yl)prop-2-en-1-one] | 100% | 2840 nM | 9.3 nM | 100% | 10.3 nM | 100% | 70800 ng·h/mL | 14.7 mL/min/kg | 19300 ng/mL | 2.95 L/kg | 2.3 h | 31200 ng·h/mL | 26.5 mL/min/kg | 14000 ng/mL | 3.75 L/kg | 1.6 h
C=CC(=O)N1[C@@H]2CC[C@H]1C[C@H](Oc1cc3c(Nc4ccc(Oc5ccn6ncnc6c5)c(C)c4)ncnc3cn1)C2 [Example 26, 1-(exo-3-((4-((4-([1,2,4]Triazolo[1,5-a]pyridin-7-yloxy)-3-methylphenyl)amino)pyrido[3,4-d]pyrimidin-6-yl)oxy)-8-azabicyclo[3.2.1]octan-8-yl)prop-2-en-1-one] | 100% | 1630 nM | 9.2 nM | 100% | 23.4 nM | 100% | – | – | – | – | – | 32100 ng·h/mL | 26 mL/min/kg | 11300 ng/mL | 2.88 L/kg | 1.3 h
C=CC(=O)N1[C@@H]2CC[C@H]1C[C@@H](Oc1ccc3ncnc(Nc4ccc(Oc5ccc6c(c5)ncn6C)c(C)c4F)c3c1)C2 [Example 18, 1-(endo-3-((4-((2-Fluoro-3-methyl-4-((1-methyl-1H-benzo[d]imidazol-5-yl)oxy)phenyl)amino)quinazolin-6-yl)oxy)-8-azabicyclo[3.2.1]octan-8-yl)prop-2-en-1-one] | 100% | 2130 nM | 17.7 nM | 100% | 23.6 nM | 100% | – | – | – | – | – | 44900 ng·h/mL | 18.5 mL/min/kg | 12700 ng/mL | 3.93 L/kg | 2.5 h
